According to patent US20090247559A1 (Exelixis, Inc., priority 2007, published 2009):
pIC50: −log10 of the molar value.

Key:
CK2 = CK2 (Homo sapiens, UniProt P68400); experiment: CK2 inhibition, biochemical chemiluminescence holoenzyme assay (Kinase Glo, IC50 determination); conditions: Table 1 activity class; symbol given only if active; read-out: CK2 IC50 (Activity C)
How it was run: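 Holoenzyme CK2 assay; compounds pre-incubated with substrate and enzyme, then reacted 150 min at 24-27° C. Remaining ATP measured as luminescence with Kinase Glo, and IC50 derived from the signal.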

[1] = target: PIM (PIM-1, PIM-2, and/or PIM-3); experiment: PIM-1, PIM-2 and PIM-3 inhibition, biochemical chemiluminescence assays (Kinase Glo, IC50 determination); conditions: Table 1 activity class; PIM refers to PIM-1, PIM-2, and/or PIM-3; read-out: PIM IC50 (Activity B)

Chain of CK2 (P68400 whole entry): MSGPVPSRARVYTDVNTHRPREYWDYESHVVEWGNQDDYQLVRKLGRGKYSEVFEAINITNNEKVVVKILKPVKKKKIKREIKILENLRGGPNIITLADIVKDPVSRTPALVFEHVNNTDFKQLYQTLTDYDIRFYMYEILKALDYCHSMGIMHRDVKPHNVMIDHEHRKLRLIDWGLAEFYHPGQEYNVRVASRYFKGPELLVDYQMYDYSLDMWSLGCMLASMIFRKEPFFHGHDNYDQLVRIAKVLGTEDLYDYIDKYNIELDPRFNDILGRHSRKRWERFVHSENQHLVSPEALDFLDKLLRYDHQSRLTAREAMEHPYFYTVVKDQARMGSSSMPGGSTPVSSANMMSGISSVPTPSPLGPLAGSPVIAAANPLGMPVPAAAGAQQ
Chain of CK2 (P67870 whole entry partner): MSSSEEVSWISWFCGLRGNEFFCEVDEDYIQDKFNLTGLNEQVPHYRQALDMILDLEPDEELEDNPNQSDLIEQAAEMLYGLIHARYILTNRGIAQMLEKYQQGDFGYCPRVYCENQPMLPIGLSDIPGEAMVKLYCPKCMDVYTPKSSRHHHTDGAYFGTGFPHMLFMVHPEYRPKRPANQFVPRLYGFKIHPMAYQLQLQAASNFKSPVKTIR

pIC50 (CK2)	pIC50 [1]	SMILES
> 5.00	> 5.00	COCCN1CCN(Cc2nc3c(oc4ccc(Br)cc43)c(=O)[nH]2)CC1 [Compound 151, 8-bromo-2-({4-[2-(methyloxy)ethyl]piperazin-1-yl}methyl)[1]benzofuro[3,2-d]pyrimidin-4(3H)-one]
> 5.00	> 5.00	CN1CCC(CNc2ccc(-c3nc4c(oc5ccc(Br)cc54)c(=O)[nH]3)c(Cl)c2)CC1 [Compound 163, 8-bromo-2-(2-chloro-4-{[(1-methylpiperidin-4-yl)methyl]amino}phenyl)[1]benzofuro[3,2-d]pyrimidin-4(3H)-one]
> 5.00	> 5.00	O=c1[nH]c(CNCc2ccncc2)nc2c1oc1ccc(Br)cc12 [Compound 165, 8-bromo-2-{[(pyridin-4-ylmethyl)amino]methyl}[1]benzofuro[3,2-d]pyrimidin-4(3H)-one]
> 5.00	> 5.00	COc1cccc2oc3c(=O)[nH]c(-c4ccc5[nH]nc(C)c5c4)nc3c12 [Compound 170, 2-(3-methyl-1H-indazol-5-yl)-9-(methyloxy)[1]benzofuro[3,2-d]pyrimidin-4(3H)-one]
> 5.00	> 5.00	CC(C)(NCc1nc2c(oc3ccc(Br)cc32)c(=O)[nH]1)C(N)=O [Compound 177, N-2-[(8-bromo-4-oxo-3,4-dihydro[1]benzofuro[3,2-d]pyrimidin-2-yl)methyl]-2-methylalaninamide]
> 5.00	> 5.00	O=c1[nH]c(Nc2ccccc2)nc2c1oc1ccc(Br)cc12 [Compound 180, 8-bromo-2-(phenylamino)[1]benzofuro[3,2-d]pyrimidin-4(3H)-one]
> 5.00	> 5.00	CC(C)(CN1CCCC1)NCc1nc2c(oc3ccc(Br)cc32)c(=O)[nH]1 [Compound 190, 8-bromo-2-{[(1,1-dimethyl-2-pyrrolidin-1-ylethyl)amino]methyl}[1]benzofuro[3,2-d]pyrimidin-4(3H)-one]
> 5.00	> 5.00	Cc1ccc(N2C[C@@H]3C[C@H]2CN3Cc2nc3c(oc4ccc(Br)cc43)c(=O)[nH]2)cc1 [Compound 192, 8-bromo-2-{[(1S,4S)-5-(4-methylphenyl)-2,5-diazabicyclo[2.2.1]hept-2-yl]methyl}[1]benzofuro[3,2-d]pyrimidin-4(3H)-one]
> 5.00	> 5.00	CN(C)CCCNc1nc2c(oc3ccc(Br)cc32)c(=O)[nH]1 [Compound 193, 8-bromo-2-{[3-(dimethylamino)propyl]amino}[1]benzofuro[3,2-d]pyrimidin-4(3H)-one]
> 5.00	> 5.00	O=c1[nH]c(N2CCCC2)nc2c1oc1ccc(Br)cc12 [Compound 196, 8-bromo-2-pyrrolidin-1-yl[1]benzofuro[3,2-d]pyrimidin-4(3H)-one]
> 5.00	> 5.00	CN(C)CCC(=O)N1CCC(c2nc3c(oc4ccc(Br)cc43)c(=O)[nH]2)CC1 [Compound 206, 8-bromo-2-[1-(N,N-dimethyl-beta-alanyl)piperidin-4-yl][1]benzofuro[3,2-d]pyrimidin-4(3H)-one]
> 5.00	> 5.00	CN(C)CCCC(=O)N1CCC(c2nc3c(oc4ccc(Br)cc43)c(=O)[nH]2)CC1 [Compound 207, 8-bromo-2-{1-[4-(dimethylamino)butanoyl]piperidin-4-yl}[1]benzofuro[3,2-d]pyrimidin-4(3H)-one]
> 5.00	> 5.00	O=C(c1ccc2[nH]cnc2c1)N1CCC(c2nc3c(oc4ccc(Br)cc43)c(=O)[nH]2)CC1 [Compound 208, 2-[1-(1H-benzimidazol-5-ylcarbonyl)piperidin-4-yl]-8-bromo[1]benzofuro[3,2-d]pyrimidin-4(3H)-one]
> 5.00	> 5.00	COCCC(=O)N1CCC(c2nc3c(oc4ccc(Br)cc43)c(=O)[nH]2)CC1 [Compound 209, 8-bromo-2-{1-[3-(methyloxy)propanoyl]piperidin-4-yl}[1]benzofuro[3,2-d]pyrimidin-4(3H)-one]
> 5.00	> 5.00	CN1CCN(CC(C)(C)NCc2nc3c(oc4ccc(Br)cc43)c(=O)[nH]2)CC1 [Compound 212, 8-bromo-2-({[1,1-dimethyl-2-(4-methylpiperazin-1-yl)ethyl]amino}methyl)[1]benzofuro[3,2-d]pyrimidin-4(3H)-one]
> 5.00	> 5.00	O=c1[nH]c(NC2CCNCC2)nc2c1oc1ccc(Br)cc12 [Compound 213, 8-bromo-2-(piperidin-4-ylamino)[1]benzofuro[3,2-d]pyrimidin-4(3H)-one]
> 5.00	> 5.00	CN1CCC(N2CCN(c3nc4c(oc5ccc(Br)cc54)c(=O)[nH]3)CC2)CC1 [Compound 228, 8-bromo-2-[4-(1-methylpiperidin-4-yl)piperazin-1-yl][1]benzofuro[3,2-d]pyrimidin-4(3H)-one]

Second part, the molecule before the results:

SMILES	pIC50 (CK2)	pIC50 [1]
COC(=O)c1ccc(-c2nc3c(oc4ccc(Br)cc43)c(=O)[nH]2)c(Cl)c1 [Compound 146, methyl 4-(8-bromo-4-oxo-3,4-dihydro[1]benzofuro[3,2-d]pyrimidin-2-yl)-3-chlorobenzoate]	> 5.00	> 5.00
CCc1nccn1Cc1nc2c(oc3ccc(Br)cc32)c(=O)[nH]1 [Compound 149, 8-bromo-2-[(2-ethyl-1H-imidazol-1-yl)methyl][1]benzofuro[3,2-d]pyrimidin-4(3H)-one]	> 5.00	> 5.00
CCN1CCN(Cc2nc3c(oc4ccc(Br)cc43)c(=O)[nH]2)CC1 [Compound 150, 8-bromo-2-[(4-ethylpiperazin-1-yl)methyl][1]benzofuro[3,2-d]pyrimidin-4(3H)-one]	> 5.00	> 5.00
COc1ccc2oc3c(=O)[nH]c(-c4ccncc4Cl)nc3c2c1 [Compound 152, 2-(3-chloropyridin-4-yl)-8-(methyloxy)[1]benzofuro[3,2-d]pyrimidin-4(3H)-one]	> 5.00	> 5.00
O=C(CCc1c[nH]cn1)Nc1ccc(-c2nc3c(oc4ccc(Br)cc43)c(=O)[nH]2)c(Cl)c1 [Compound 162, N-[4-(8-bromo-4-oxo-3,4-dihydro[1]benzofuro[3,2-d]pyrimidin-2-yl)-3-chlorophenyl]-3-(1H-imidazol-4-yl)propanamide]	> 5.00	> 5.00
NCCN1CCC(Cc2nc3c(oc4ccc(Br)cc43)c(=O)[nH]2)CC1 [Compound 168, 2-{[1-(2-aminoethyl)piperidin-4-yl]methyl}-8-bromo[1]benzofuro[3,2-d]pyrimidin-4(3H)-one]	> 5.00	> 5.00
COc1cccc2oc3c(=O)[nH]c(-c4ccc5[nH]nc(N)c5c4)nc3c12 [Compound 171, 2-(3-amino-1H-indazol-5-yl)-9-(methyloxy)[1]benzofuro[3,2-d]pyrimidin-4(3H)-one]	> 5.00	> 5.00
CCC(c1nc2c(oc3ccc(Br)cc32)c(=O)[nH]1)N1CCN(C)CC1 (stereo not shown) [Compound 172, 8-bromo-2-[1-(4-methylpiperazin-1-yl)propyl][1]benzofuro[3,2-d]pyrimidin-4(3H)-one]	> 5.00	> 5.00
O=c1[nH]c(Cn2ccnc2-c2ccccc2)nc2c1oc1ccc(Br)cc12 [Compound 176, 8-bromo-2-[(2-phenyl-1H-imidazol-1-yl)methyl][1]benzofuro[3,2-d]pyrimidin-4(3H)-one]	> 5.00	> 5.00
CN(C)CC(C)(C)CNc1ccc(-c2nc3c(oc4ccc(Br)cc43)c(=O)[nH]2)c(Cl)c1 [Compound 179, 8-bromo-2-(2-chloro-4-{[3-(dimethylamino)-2,2-dimethylpropyl]amino}phenyl)[1]benzofuro[3,2-d]pyrimidin-4(3H)-one]	> 5.00	> 5.00
CC(=O)N1CCN(Cc2nc3c(oc4ccc(Br)cc43)c(=O)[nH]2)CC1 [Compound 187, 2-[(4-acetylpiperazin-1-yl)methyl]-8-bromo[1]benzofuro[3,2-d]pyrimidin-4(3H)-one]	> 5.00	> 5.00
CC(=O)N1CCC(c2nc3c(oc4ccc(Br)cc43)c(=O)[nH]2)CC1 [Compound 203, 2-(1-acetylpiperidin-4-yl)-8-bromo[1]benzofuro[3,2-d]pyrimidin-4(3H)-one]	> 5.00	> 5.00
O=c1[nH]c(CN2CC[C@H](O)C2)nc2c1oc1ccccc12 [Compound 204, 2-{[(3S)-3-hydroxypyrrolidin-1-yl]methyl}[1]benzofuro[3,2-d]pyrimidin-4(3H)-one]	> 5.00	> 5.00
CN(C)CC(=O)N1CCC(c2nc3c(oc4ccc(Br)cc43)c(=O)[nH]2)CC1 [Compound 210, 8-bromo-2-[1-(N,N-dimethylglycyl)piperidin-4-yl][1]benzofuro[3,2-d]pyrimidin-4(3H)-one]	> 5.00	> 5.00
NCc1cc(Cl)c(-c2nc3c(oc4ccc(Br)cc43)c(=O)[nH]2)cc1F [Compound 211, 2-[4-(aminomethyl)-2-chloro-5-fluorophenyl]-8-bromo[1]benzofuro[3,2-d]pyrimidin-4(3H)-one]	> 5.00	> 5.00
CC(C)(C)OC(=O)NC1CCC(c2nc3c(oc4ccc(Br)cc43)c(=O)[nH]2)CC1 (stereo not shown) [Compound 222, 1,1-Dimethylethyl [4-(8-bromo-4-oxo-3,4-dihydro[1]benzofuro[3,2-d]pyrimidin-2-yl)cyclohexyl]carbamate]	> 5.00	> 5.00
CN(C)CCN1CCN(c2nc3c(oc4ccc(Br)cc43)c(=O)[nH]2)CC1 [Compound 227, 8-bromo-2-{4-[2-(dimethylamino)ethyl]piperazin-1-yl}[1]benzofuro[3,2-d]pyrimidin-4(3H)-one]	> 5.00	> 5.00
O=c1[nH]c(CN2C[C@H]3CNC[C@H]3C2)nc2c1oc1ccc(Br)cc12 [Compound 229, 8-bromo-2-[(3aR,6aS)-hexahydropyrrolo[3,4-c]pyrrol-2(1H)-ylmethyl][1]benzofuro[3,2-d]pyrimidin-4(3H)-one]	> 5.00	> 5.00
